{"source": "patent US20250206714A1", "about": "“COMPOSITIONS AND METHODS FOR TREATMENT OF INFLAMMATORY DISEASES” (Invea Therapeutics, Inc., priority 2022, published 2025)", "key": {"MDR1 (P-gp)": {"test_system": "MDR1 (P-gp)", "assay": "in vitro", "set-up": "Papp A→B at 60 min / Papp B→A at 60 min / efflux ratio at 60 min / recovery at 60 min / % recovery Apical concentration-Basal concentration / % recovery Basal concentration-Apical concentration: dose or concentration left out as unconfirmed", "details": "dog; for efflux ratio at 60 min: MDCK-MDR1", "method": "(§1) Digoxin is used as reference and lucifer yellow is used as the integrity marker. […] Papp, efflux ratio and percent recovery are calculated."}, "MDR1": {"test_system": "MDR1", "assay": "in vitro", "set-up": "Papp A→B at 60 min / Papp B→A at 60 min / efflux ratio at 60 min / recovery at 60 min / % recovery Apical concentration-Basal concentration / % recovery Basal concentration-Apical concentration: dose or concentration left out as unconfirmed", "details": "dog, MDCK-MDR1", "method": "as §1"}, "[1]": {"test_system": "MDR1 transfected Madin-Darby canine kidney (MDCK) cell monolayer", "assay": "Permeability assay (MDR1-MDCK)", "set-up": "Papp A→B at 60 min / Papp B→A at 60 min / efflux ratio at 60 min / recovery at 60 min / % recovery Apical concentration-Basal concentration / % recovery Basal concentration-Apical concentration: dose or concentration left out as unconfirmed", "details": "Permeability (MDR1-MDCK) @", "method": "as §1"}, "CYP 2C9": {"biological_target": "T1, CYP 2C9 (Homo sapiens, UniProt P11712)", "T1 construct": "The experiment was conducted in human liver microsomes; from tissue; host or cells: human liver microsomes", "T1 sequence (P11712 whole entry)": "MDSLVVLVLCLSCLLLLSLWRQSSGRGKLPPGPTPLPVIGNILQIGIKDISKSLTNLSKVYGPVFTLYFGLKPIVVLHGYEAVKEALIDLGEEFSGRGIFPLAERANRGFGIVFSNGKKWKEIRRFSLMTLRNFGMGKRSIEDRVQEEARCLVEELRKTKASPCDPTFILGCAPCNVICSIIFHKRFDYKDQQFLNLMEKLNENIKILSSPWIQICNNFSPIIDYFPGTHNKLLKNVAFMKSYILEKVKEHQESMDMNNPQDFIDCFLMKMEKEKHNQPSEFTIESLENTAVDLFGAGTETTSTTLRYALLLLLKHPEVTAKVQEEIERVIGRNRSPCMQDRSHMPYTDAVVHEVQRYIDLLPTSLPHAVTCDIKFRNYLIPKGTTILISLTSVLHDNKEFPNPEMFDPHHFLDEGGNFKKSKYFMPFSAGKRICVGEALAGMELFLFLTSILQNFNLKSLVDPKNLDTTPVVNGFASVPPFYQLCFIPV", "assay": "Metabolic stability in human liver microsomes with CYP 2C9 inhibitor Sulfaphenazole", "assay_type": "in vitro ADME", "details": "1 μM + Sulfaphenazole (20 μM)"}, "[2]": {"assay": "Metabolic stability assay in human liver microsomes in the presence of specific cytochrome P450 inhibitors (arm without inhibitor, summary statements)", "details": "for % rem @ 5 min / % rem @ 15 min / % rem @ 30 min / % rem @ 45 min: 1 μM, no inhibitor"}, "CYP 2C19": {"biological_target": "T2, CYP 2C19 (Homo sapiens, UniProt P33261)", "T2 construct": "The experiment was conducted in human liver microsomes; from tissue; host or cells: human liver microsomes", "T2 sequence (P33261 whole entry)": "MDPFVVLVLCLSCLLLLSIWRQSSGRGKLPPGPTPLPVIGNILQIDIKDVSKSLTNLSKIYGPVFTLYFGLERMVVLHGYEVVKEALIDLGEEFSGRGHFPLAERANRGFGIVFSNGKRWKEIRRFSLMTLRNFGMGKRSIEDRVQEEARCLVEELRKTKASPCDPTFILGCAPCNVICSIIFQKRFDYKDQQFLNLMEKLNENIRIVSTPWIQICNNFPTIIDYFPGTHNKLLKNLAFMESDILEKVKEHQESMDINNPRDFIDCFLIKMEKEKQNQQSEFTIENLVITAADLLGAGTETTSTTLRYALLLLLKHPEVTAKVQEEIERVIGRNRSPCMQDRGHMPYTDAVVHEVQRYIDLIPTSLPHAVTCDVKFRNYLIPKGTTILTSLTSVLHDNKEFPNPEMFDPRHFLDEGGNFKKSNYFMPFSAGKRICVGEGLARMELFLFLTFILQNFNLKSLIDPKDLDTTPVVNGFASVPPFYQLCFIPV", "assay": "Metabolic stability in human liver microsomes with CYP 2C19 inhibitor Nootkatone", "assay_type": "in vitro ADME", "details": "1 μM + Nootkatone (20 μM)"}, "CYP 3A4": {"biological_target": "CYP 3A4 (Homo sapiens, UniProt P08684)", "sequence (P08684 whole entry)": "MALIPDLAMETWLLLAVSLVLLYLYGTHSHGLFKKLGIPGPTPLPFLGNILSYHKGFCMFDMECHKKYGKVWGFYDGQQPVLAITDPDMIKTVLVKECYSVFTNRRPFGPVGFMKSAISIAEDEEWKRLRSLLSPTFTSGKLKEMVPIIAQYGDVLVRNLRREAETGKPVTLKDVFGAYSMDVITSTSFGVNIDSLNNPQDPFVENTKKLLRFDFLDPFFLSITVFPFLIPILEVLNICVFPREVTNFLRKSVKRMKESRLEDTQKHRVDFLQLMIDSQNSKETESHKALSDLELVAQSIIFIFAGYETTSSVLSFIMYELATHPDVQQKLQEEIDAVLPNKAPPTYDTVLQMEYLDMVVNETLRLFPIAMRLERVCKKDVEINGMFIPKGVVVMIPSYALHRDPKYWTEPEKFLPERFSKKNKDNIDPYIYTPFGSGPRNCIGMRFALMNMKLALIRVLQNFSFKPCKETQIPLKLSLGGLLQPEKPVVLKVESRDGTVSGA", "assay": "Metabolic stability in human liver microsomes with CYP 3A4 inhibitor Ketoconazole", "details": "1 μM + Ketoconazole (20 μM)"}, "IL-1β": {"test_system": "IL-1β", "assay": "LPS+ATP-induced model of inflammasome activation, plasma IL-1β by ELISA", "assay_type": "in vivo, Balb/c mice", "details": "20 mg/kg, Intraperitoneal; mice plasma", "method": "The procedures detailed here can be utilized for testing all compounds of the disclosure. The example utilizes LPS+ATP-induced model of inflammasome activation in 8-10 weeks old male Balb/c mice for in vivo testing.\n8-10 weeks old male Balb/c mice were challenged by intraperitoneal (i.p.) injection of 200 μg/Kg (0.2 μg/g) LPS at t=0 hr, followed by i.p. injection of 5 mM solution of ATP at t=2 hr (2 h after LPS challenge). The compound of disclosure being tested for inhibitory activity (such as Compound 6) was administered both via intraperitoneal and oral route at −1 hr. Different doses of the compound of the disclosure were given to the mice […] as shown below.\nMCC950, a specific small molecule inhibitor of NLRP3 inflammasome was used as a positive control to enable comparison of inhibitory activity of the compounds of the disclosure along with a known inhibitor. 2.5 hours after the LPS priming (or 0.5 hours after ATP administration), blood was collected via retro-orbital bleeding in heparinized blood collection tubes. Blood was centrifuged for 5 minutes at 10,000 rpm in a refrigerated centrifuge to obtain plasma. Separated plasma was used for cytokine assessment by ELISA. The standard curve (OD VS concentration) for IL-1β was also plotted and used to determine the IL-1β concentration for the OD values. The percentage of inhibition of IL-1β was calculated using the formula: […]"}, "CYP 1A2": {"biological_target": "T3, CYP 1A2 (Homo sapiens, UniProt P05177)", "T3 construct": "The experiment was conducted in human liver microsomes; from tissue; host or cells: human liver microsomes", "T3 sequence (P05177 1-516)": "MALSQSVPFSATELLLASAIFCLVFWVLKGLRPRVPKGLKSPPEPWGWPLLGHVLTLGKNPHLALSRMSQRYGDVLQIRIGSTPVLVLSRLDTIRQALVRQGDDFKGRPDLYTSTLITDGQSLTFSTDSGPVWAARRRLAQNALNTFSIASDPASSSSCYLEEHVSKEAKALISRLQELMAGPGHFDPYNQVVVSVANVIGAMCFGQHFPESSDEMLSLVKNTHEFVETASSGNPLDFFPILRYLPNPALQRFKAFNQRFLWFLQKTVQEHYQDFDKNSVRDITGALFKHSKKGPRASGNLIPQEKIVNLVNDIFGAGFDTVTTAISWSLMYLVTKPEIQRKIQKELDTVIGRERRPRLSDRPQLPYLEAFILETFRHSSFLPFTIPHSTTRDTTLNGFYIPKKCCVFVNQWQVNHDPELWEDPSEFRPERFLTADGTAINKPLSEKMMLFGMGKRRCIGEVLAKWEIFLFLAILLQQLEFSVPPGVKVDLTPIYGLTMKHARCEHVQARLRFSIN", "assay": "Metabolic stability in human liver microsomes with CYP 1A2 inhibitor Furafylline", "assay_type": "in vitro ADME", "details": "1 μM + Furafylline (20 μM)"}, "[3]": {"details": "MDCK-MDR1, % recovery Apical concentration-Basal concentration"}, "[4]": {"details": "MDCK-MDR1, % recovery Basal concentration-Apical concentration"}, "[5]": {"details": "human, human liver microsomes, pH 7.4"}}, "data": [{"compound": "CC(C)NCC(O)COc1cccc2ccccc12", "note": "(centres unmarked) [Propranolol]", "values": [{"measurement": "efflux ratio at 60 min", "setting": "MDR1 (P-gp)", "result": 1.01}, {"measurement": "recovery at 60 min", "setting": "MDR1 (P-gp); [3]", "result": 71.5, "unit": "%"}, {"measurement": "recovery at 60 min", "setting": "MDR1 (P-gp); [4]", "result": "~100", "unit": "%"}, {"measurement": "Papp A→B at 60 min", "setting": "MDR1", "result": 47.5, "unit": "×10⁻⁶ cm/s"}, {"measurement": "Papp B→A at 60 min", "setting": "MDR1", "result": 48.2, "unit": "×10⁻⁶ cm/s"}]}, {"compound": "C[C@H]1O[C@@H](O[C@H]2[C@@H](O)C[C@H](O[C@H]3[C@@H](O)C[C@H](O[C@H]4CC[C@@]5(C)[C@H](CC[C@@H]6[C@@H]5C[C@@H](O)[C@]5(C)[C@@H](C7=CC(=O)OC7)CC[C@]65O)C4)O[C@@H]3C)O[C@@H]2C)C[C@H](O)[C@@H]1O", "note": "[Digoxin]", "values": [{"measurement": "efflux ratio at 60 min", "setting": "MDR1 (P-gp)", "result": 54.3}, {"measurement": "recovery at 60 min", "setting": "MDR1 (P-gp); [3]", "result": 99.9, "unit": "%"}, {"measurement": "recovery at 60 min", "setting": "MDR1 (P-gp); [4]", "result": "~100", "unit": "%"}, {"measurement": "Papp A→B at 60 min", "setting": "MDR1", "result": 0.28, "unit": "×10⁻⁶ cm/s"}, {"measurement": "Papp B→A at 60 min", "setting": "MDR1", "result": 15.2, "unit": "×10⁻⁶ cm/s"}]}, {"compound": "Lucifer yellow", "values": [{"measurement": "% recovery Apical concentration-Basal concentration", "setting": "[1]", "result": 97.2, "unit": "%"}, {"measurement": "% recovery Basal concentration-Apical concentration", "setting": "[1]", "result": 97.1, "unit": "%"}]}, {"compound": "O=C(O)Cc1ccccc1Nc1c(Cl)cccc1Cl", "note": "[Diclofenac, reference compound]", "values": [{"measurement": "% rem @ 5 min", "setting": "CYP 2C9", "result": "~100", "unit": "%"}, {"measurement": "% rem @ 15 min", "setting": "CYP 2C9", "result": "~100", "unit": "%"}, {"measurement": "% rem @ 30 min", "setting": "CYP 2C9", "result": 91.9, "unit": "%"}, {"measurement": "% rem @ 45 min", "setting": "CYP 2C9", "result": 82.0, "unit": "%"}, {"measurement": "half-life at 1 µM", "setting": "CYP 2C9; pH 7.4, with Sulfaphenazole 20 μM", "result": 131, "unit": "min"}, {"measurement": "microsomal CLint at 1 μM", "setting": "CYP 2C9; pH 7.4, with Sulfaphenazole 20 μM, read-out: mCLint", "result": 10.6, "unit": "µL/min/mg"}, {"measurement": "% rem @ 5 min", "setting": "[2]; human liver microsomes", "result": 49.5, "unit": "%"}, {"measurement": "% rem @ 15 min", "setting": "[2]; human liver microsomes", "result": 28.3, "unit": "%"}, {"measurement": "% rem @ 30 min", "setting": "[2]; human liver microsomes", "result": 10.5, "unit": "%"}, {"measurement": "% rem @ 45 min", "setting": "[2]; human liver microsomes", "result": 4.93, "unit": "%"}]}, {"compound": "COc1ccc2[nH]c([S+]([O-])Cc3ncc(C)c(OC)c3C)nc2c1", "note": "(centres unmarked) [Omeprazole, reference compound]", "values": [{"measurement": "% rem @ 5 min", "setting": "CYP 2C19", "result": 94.8, "unit": "%"}, {"measurement": "% rem @ 15 min", "setting": "CYP 2C19", "result": 92.7, "unit": "%"}, {"measurement": "% rem @ 30 min", "setting": "CYP 2C19", "result": 85.0, "unit": "%"}, {"measurement": "% rem @ 45 min", "setting": "CYP 2C19", "result": 55.6, "unit": "%"}, {"measurement": "half-life at 1 µM", "setting": "CYP 2C19; pH 7.4, with Nootkatone 20 μM", "result": 59.3, "unit": "min"}, {"measurement": "microsomal CLint at 1 μM", "setting": "CYP 2C19; pH 7.4, with Nootkatone 20 μM, read-out: mCLint", "result": 23.4, "unit": "µL/min/mg"}, {"measurement": "% rem @ 5 min", "setting": "[2]; human liver microsomes", "result": 95.9, "unit": "%"}, {"measurement": "% rem @ 15 min", "setting": "[2]; human liver microsomes", "result": 71.1, "unit": "%"}, {"measurement": "% rem @ 30 min", "setting": "[2]; human liver microsomes", "result": 60.1, "unit": "%"}, {"measurement": "% rem @ 45 min", "setting": "[2]; human liver microsomes", "result": 28.8, "unit": "%"}, {"measurement": "half-life at 1 µM", "setting": "[2]; [5]", "result": 26.4, "unit": "min"}, {"measurement": "microsomal CLint at 1 μM", "setting": "[2]; [5]", "result": 52.6, "unit": "µL/min/mg"}]}, {"compound": "Cc1ncc2n1-c1ccc(Cl)cc1C(c1ccccc1F)=NC2", "note": "[Midazolam]", "values": [{"measurement": "% rem @ 5 min", "setting": "CYP 3A4", "result": 96.7, "unit": "%"}, {"measurement": "% rem @ 15 min", "setting": "CYP 3A4", "result": 97.1, "unit": "%"}, {"measurement": "% rem @ 30 min", "setting": "CYP 3A4", "result": "~100", "unit": "%"}, {"measurement": "% rem @ 45 min", "setting": "CYP 3A4", "result": "~100", "unit": "%"}, {"measurement": "% rem @ 5 min", "setting": "[2]; human liver microsomes", "result": 22.0, "unit": "%"}, {"measurement": "% rem @ 15 min", "setting": "[2]; human liver microsomes", "result": 2.77, "unit": "%"}, {"measurement": "% rem @ 30 min", "setting": "[2]; human liver microsomes", "result": "<1", "unit": "%"}, {"measurement": "% rem @ 45 min", "setting": "[2]; human liver microsomes", "result": "<1", "unit": "%"}, {"measurement": "half-life at 1 µM", "setting": "[2]; human, microsomes, pH 7.4", "result": 5.21, "unit": "min"}]}, {"compound": "CC(C)(O)c1coc(S(=O)(=O)NC(=O)Nc2c3c(cc4c2CCC4)CCC3)c1", "note": "[MCC950, reference compound]", "values": [{"measurement": "% IL-1 β inhibition", "setting": "IL-1β", "result": 95, "unit": "%"}]}, {"compound": "CCOc1ccc(NC(C)=O)cc1", "note": "[Phenacetin, reference compound]", "values": [{"measurement": "% rem @ 5 min", "setting": "CYP 1A2", "result": "~100", "unit": "%"}, {"measurement": "% rem @ 15 min", "setting": "CYP 1A2", "result": "~100", "unit": "%"}, {"measurement": "% rem @ 30 min", "setting": "CYP 1A2", "result": "~100", "unit": "%"}, {"measurement": "% rem @ 45 min", "setting": "CYP 1A2", "result": 71.9, "unit": "%"}, {"measurement": "half-life at 1 µM", "setting": "CYP 1A2; pH 7.4, with Furafylline 20 μM", "result": 102, "unit": "min"}, {"measurement": "microsomal CLint at 1 μM", "setting": "CYP 1A2; pH 7.4, with Furafylline 20 μM, read-out: mCLint", "result": 13.6, "unit": "µL/min/mg"}]}]}
